Assay results: PubChem BioAssay (NCI)
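Results reflect a 48-hour exposure of cells in 96-well plates to compound at five concentrations. GI50 = concentration required for 50% inhibition of growth. At the TGI there is no net growth.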

Assays:
Assay in all cases: growth of human tumour cells (NCI), 48 h
[1] = system: UACC-62 melanoma
[2] = system: SNB-19 CNS
[3] = system: MDA-MB-231 breast
[4] = system: SR leukemia
[5] = system: SF-295 CNS
[6] = system: HCT-15 colon
[7] = system: SF-539 CNS
[8] = system: SK-MEL-5 melanoma
[9] = system: OVCAR-5 ovarian
[10] = system: SW-620 colon
[11] = system: LOX IMVI melanoma
[12] = system: HL-60(TB) leukemia
[13] = system: MALME-3M melanoma
[14] = system: IGROV1 ovarian
[15] = system: HS 578T breast
[16] = system: HCT-116 colon
[17] = system: OVCAR-3 ovarian
[18] = system: DU-145 prostate
[19] = system: SK-OV-3 ovarian
[20] = system: RXF 393 renal
[21] = system: NCI-H23 lung
[22] = system: CCRF-CEM leukemia
[23] = system: KM12 colon
[24] = system: CAKI-1 renal
[25] = system: NCI-H522 lung
[26] = system: BT-549 breast
[27] = system: SN12C renal
[28] = system: TK-10 renal
[29] = system: HT29 colon
[30] = system: SK-MEL-28 melanoma
[31] = system: SK-MEL-2 melanoma
[32] = system: A498 renal
[33] = system: SF-268 CNS
[34] = system: ACHN renal
[35] = system: OVCAR-4 ovarian
[36] = system: SNB-75 CNS
[37] = system: M14 melanoma
[38] = system: MOLT-4 leukemia
[39] = system: EKVX NSCLC
[40] = system: PC-3 prostate
[41] = system: NCI/ADR-RES ovarian
[42] = system: MCF7 breast
[43] = system: MDA-MB-435
[44] = system: K-562 leukemia
[45] = system: NCI-H460 lung
[46] = system: UO-31 renal
[47] = system: HCC-2998 colon
[48] = system: UACC-257 melanoma

Fc1ccc(C2CC(c3cccc(Nc4ccncc4)c3)=NN2c2ccc(Cl)cc2)cc1 (stereo unspecified)
GI50 [1]: 1730 nM
TGI [1]: 3190 nM
GI50 [2]: 1650 nM
TGI [2]: 3070 nM
GI50 [3]: 1510 nM
TGI [3]: 2860 nM
GI50 [4]: 1790 nM
TGI [4]: 4230 nM
GI50 [5]: 1800 nM
TGI [5]: 3230 nM
GI50 [6]: 1910 nM
TGI [6]: 3820 nM
GI50 [7]: 1650 nM
TGI [7]: 3070 nM
GI50 [8]: 1760 nM
TGI [8]: 3160 nM
GI50 [9]: 1810 nM
TGI [9]: 4050 nM
GI50 [10]: 1640 nM
TGI [10]: 3090 nM
GI50 [11]: 1690 nM
TGI [11]: 3060 nM
GI50 [12]: 1950 nM
TGI [12]: 4220 nM
GI50 [13]: 1590 nM
TGI [13]: 3100 nM
GI50 [14]: 1780 nM
TGI [14]: 3370 nM
GI50 [15]: 1740 nM
TGI [15]: 3630 nM
GI50 [16]: 1730 nM
TGI [16]: 3390 nM
GI50 [17]: 1620 nM
TGI [17]: 3070 nM
GI50 [18]: 1780 nM
TGI [18]: 3210 nM
GI50 [19]: 1980 nM
TGI [19]: 4530 nM
GI50 [20]: 1630 nM
TGI [20]: 3000 nM
GI50 [21]: 1840 nM
TGI [21]: 3620 nM
GI50 [22]: 3120 nM
TGI [22]: 9870 nM
GI50 [23]: 1680 nM
TGI [23]: 3330 nM
GI50 [24]: 1390 nM
TGI [24]: 2710 nM
GI50 [25]: 1780 nM
TGI [25]: 3680 nM
GI50 [26]: 2040 nM
TGI [26]: 4260 nM
GI50 [27]: 1670 nM
TGI [27]: 3160 nM
GI50 [28]: 1740 nM
TGI [28]: 3370 nM
GI50 [29]: 1990 nM
TGI [29]: 4440 nM
GI50 [30]: 1720 nM
TGI [30]: 3240 nM
GI50 [31]: 1890 nM
TGI [31]: 3730 nM
GI50 [32]: 1150 nM
TGI [32]: 4620 nM
GI50 [33]: 1750 nM
TGI [33]: 3450 nM
GI50 [34]: 1610 nM
TGI [34]: 2960 nM
GI50 [35]: 1640 nM
TGI [35]: 3050 nM
GI50 [36]: 1250 nM
TGI [36]: 2800 nM
GI50 [37]: 1770 nM
TGI [37]: 3380 nM
GI50 [38]: 2120 nM
TGI [38]: 5330 nM
GI50 [39]: 2110 nM
TGI [39]: 6330 nM
GI50 [40]: 1630 nM
TGI [40]: 3190 nM
GI50 [41]: 1820 nM
TGI [41]: 3480 nM
GI50 [42]: 1750 nM
TGI [42]: 3500 nM
GI50 [43]: 1580 nM
TGI [43]: 2950 nM
GI50 [44]: 1860 nM
TGI [44]: 4860 nM
GI50 [45]: 1790 nM
TGI [45]: 3350 nM
GI50 [46]: 1420 nM
TGI [46]: 2760 nM
GI50 [47]: 1550 nM
TGI [47]: 2960 nM
GI50 [48]: 2000 nM
TGI [48]: 4150 nM
